Molecular target: T1, recombinant human SAE enzyme (Homo sapiens, UniProt Q9UBT2)
T1 sequence (Q9UBT2 1-640): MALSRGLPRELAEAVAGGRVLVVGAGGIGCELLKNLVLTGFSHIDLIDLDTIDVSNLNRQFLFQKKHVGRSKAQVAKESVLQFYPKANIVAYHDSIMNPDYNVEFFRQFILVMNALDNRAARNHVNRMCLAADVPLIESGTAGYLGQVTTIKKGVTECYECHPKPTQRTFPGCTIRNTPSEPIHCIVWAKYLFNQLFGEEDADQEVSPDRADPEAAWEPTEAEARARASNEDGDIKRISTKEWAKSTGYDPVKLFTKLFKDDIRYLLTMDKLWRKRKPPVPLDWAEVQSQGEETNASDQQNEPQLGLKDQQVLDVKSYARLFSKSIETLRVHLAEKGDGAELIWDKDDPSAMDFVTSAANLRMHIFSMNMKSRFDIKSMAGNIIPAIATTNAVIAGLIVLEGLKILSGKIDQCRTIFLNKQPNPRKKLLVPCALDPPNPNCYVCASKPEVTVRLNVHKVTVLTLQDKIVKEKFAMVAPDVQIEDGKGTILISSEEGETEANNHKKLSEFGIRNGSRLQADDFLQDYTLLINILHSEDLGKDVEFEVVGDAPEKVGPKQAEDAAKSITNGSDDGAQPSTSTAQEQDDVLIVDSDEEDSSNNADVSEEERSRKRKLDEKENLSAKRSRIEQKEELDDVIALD
T1 sequence (Q9UBE0 1-346 partner): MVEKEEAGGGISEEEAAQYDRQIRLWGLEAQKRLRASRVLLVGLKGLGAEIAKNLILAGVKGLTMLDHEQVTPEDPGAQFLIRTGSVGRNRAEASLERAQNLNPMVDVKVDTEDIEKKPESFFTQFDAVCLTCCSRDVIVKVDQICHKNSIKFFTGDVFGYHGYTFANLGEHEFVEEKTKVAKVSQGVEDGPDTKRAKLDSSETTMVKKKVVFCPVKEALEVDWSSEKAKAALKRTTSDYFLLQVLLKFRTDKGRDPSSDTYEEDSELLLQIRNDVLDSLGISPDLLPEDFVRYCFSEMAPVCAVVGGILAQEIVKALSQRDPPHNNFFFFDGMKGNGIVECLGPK
Test: SAE HTRF Enzyme Assay
Type: biochemical
Conditions: for IC50: class symbols A-C; for inhibition at 0.111 µM: compound concentration 0.111 μM, read-out: Percent Inhibition
Summary of the method: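 SAE 0.11 nM; ATP 0.5 μM; Sumo-Flag 0.125 μM; Ubc9-GST 0.01 μM; 250 μM GSH, 5 mM MgCl2, pH 7.5. 105 min, 24° C. EDTA/KF stop plus Eu/APC antibodies, 2 h, TR-FRET. % inhibition or IC50.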

Row | SMILES | IC50 | inhibition at 0.111 µM
1 | NS(=O)(=O)OC[C@H]1C[C@@H](Nc2ncncc2C(=O)c2ccn(Cc3sccc3Cl)n2)C[C@@H]1O [Compound I-232, [(1R,2S,4R)-4-{[5-({1-[(3-chloro-2-thienyl)methyl]-1H-pyrazol-3-yl}carbonyl)pyrimidin-4-yl]amino}-2-hydroxycyclopentyl]methyl sulfamate] | < 10 nM | 97%
2 | NS(=O)(=O)OC[C@H]1C[C@@H](Nc2ccncc2C(=O)c2ccn(Cc3ccc(Cl)c(Cl)c3)c2)C[C@@H]1O [Compound I-233, {(1R,2S,4R)-4-[(3-{[1-(3,4-dichlorobenzyl)-1H-pyrrol-3-yl]carbonyl}pyridin-4-yl)amino]-2-hydroxycyclopentyl}methyl sulfamate] | < 10 nM | 98%
3 | CCC#CCn1ccc(C(=O)c2cncnc2N[C@@H]2C[C@H](COS(N)(=O)=O)[C@@H](O)C2)n1 [Compound I-234, {(1R,2S,4R)-2-hydroxy-4-[(5-{[1-(pent-2-yn-1-yl)-1H-pyrazol-3-yl]carbonyl}pyrimidin-4-yl)amino]cyclopentyl}methyl sulfamate] | 10 to 100 nM | 91%
4 | NS(=O)(=O)OC[C@H]1C[C@@H](Nc2ncncc2C(=O)c2ccn(Cc3ccc(C(F)F)o3)n2)C[C@@H]1O [Compound I-235, [(1R,2S,4R)-4-({5-[(1-{[5-(difluoromethyl)-2-furyl]methyl}-1H-pyrazol-3-yl)carbonyl]pyrimidin-4-yl}amino)-2-hydroxycyclopentyl]methyl sulfamate] | < 10 nM | 100%
5 | COCC#CCn1ccc(C(=O)c2cncnc2N[C@@H]2C[C@H](COS(N)(=O)=O)[C@@H](O)[C@@H]2F)c1 [Compound I-236, {(1R,2R,3R,4R)-3-fluoro-2-hydroxy-4-[(5-{[1-(4-methoxybut-2-yn-1-yl)-1H-pyrrol-3-yl]carbonyl}pyrimidin-4-yl)amino]cyclopentyl}methyl sulfamate] | 10 to 100 nM | 54%
6 | NS(=O)(=O)OC[C@H]1C[C@@H](Nc2ncncc2C(=O)c2ccn(Cc3cccc4nccn34)c2)[C@@H](F)[C@@H]1O [Compound I-237, {(1R,2R,3R,4R)-3-fluoro-2-hydroxy-4-[(5-{[1-(imidazo[1,2-a]pyridin-5-ylmethyl)-1H-pyrrol-3-yl]carbonyl}pyimidin-4-yl)amino]cyclopentyl}methyl sulfamate] | 10 to 100 nM | 85%
7 | Cc1cc(C(=O)c2cncnc2N[C@@H]2C[C@H](COS(N)(=O)=O)[C@@H](O)C2)nn1Cc1cccc(Br)n1 [Compound I-238, [(1R,2S,4R)-4-{[5-({1-[(6-bromopyridin-2-yl)methyl]-5-methyl-1H-pyrazol-3-yl}carbonyl)pyrimidin-4-yl]amino}-2-hydroxycyclopentyl]methyl sulfamate] | < 10 nM | 99%
8 | NS(=O)(=O)OC[C@H]1C[C@@H](Nc2ncncc2C(=O)c2ccn(Cc3cc(Br)ccc3Cl)n2)C[C@@H]1O [Compound I-239, {(1R,2S,4R)-4-[(5-{[1-(5-bromo-2-chlorobenzyl)-1H-pyrazol-3-yl]carbonyl}pyrimidin-4-yl)amino]-2-hydroxycyclopentyl}methyl sulfamate] | < 10 nM | 99%
9 | NS(=O)(=O)OC[C@H]1C[C@@H](Nc2ncncc2C(=O)c2ccn(Cc3cccc(Br)c3)n2)[C@H](O)[C@@H]1O [Compound I-240, {(1R,2R,3S,4R)-4-[(5-{[1-(3-bromobenzyl)-1H-pyrazol-3-yl]carbonyl}pyrimidin-4-yl)amino]-2,3-dihydroxycyclopentyl}methyl sulfamate] | < 10 nM | 100%
10 | NS(=O)(=O)OC[C@H]1C[C@@H](Nc2ncncc2C(=O)c2ccn(Cc3cc4ccccc4s3)n2)C[C@@H]1O [Compound I-241, {(1R,2S,4R)-4-[(5-{[1-(1-benzothiophen-2-ylmethyl)-1H-pyrazol-3-yl]carbonyl}pyrimidin-4-yl)amino]-2-hydroxycyclopentyl}methyl sulfamate] | < 10 nM | 98%
11 | NS(=O)(=O)OC[C@H]1C[C@@H](Nc2ccncc2C(=O)c2ccn(Cc3cccc(Cl)c3)n2)[C@@H](F)[C@@H]1O [Compound I-242, {(1R,2R,3R,4R)-4-[(3-{[1-(3-chlorobenzyl)-1H-pyrazol-3-yl]carbonyl}pyridin-4-yl)amino]-3-fluoro-2-hydroxycyclopentyl}methyl sulfamate] | < 10 nM | 96%
12 | NS(=O)(=O)OC[C@H]1C[C@@H](Nc2ncncc2C(=O)c2ccn(CCc3cccc(Br)c3)c2)[C@@H](F)[C@@H]1O [Compound I-243, [(1R,2R,3R,4R)-4-{[5-({1-[2-(3-bromophenyl)ethyl]-1H-pyrrol-3-yl}carbonyl)pyrimidin-4-yl]amino}-3-fluoro-2-hydroxycyclopentyl]methyl sulfamate] | < 10 nM | 99%
13 | NS(=O)(=O)OC[C@H]1C[C@@H](Nc2ncncc2C(=O)c2cc(Cl)n(Cc3cccc(Br)c3)c2)[C@@H](F)[C@@H]1O [Compound I-244, {(1R,2R,3R,4R)-4-[(5-{[1-(3-Bromobenzyl)-5-chloro-1H-pyrrol-3-yl]carbonyl}pyrimidin-4-yl)amino]-3-fluoro-2-hydroxycyclopentyl}methyl sulfamate] | < 10 nM | 98%
14 | NS(=O)(=O)OC[C@H]1C[C@@H](Nc2ncncc2C(=O)c2ccn(Cc3ccc(F)c(I)c3)n2)C[C@@H]1O [Compound I-245, {(1R,2S,4R)-4-[(5-{[1-(4-fluoro-3-iodobenzyl)-1H-pyrazol-3-yl]carbonyl}pyrimidin-4-yl)amino]-2-hydroxycyclopentyl}methyl sulfamate] | < 10 nM | 100%
15 | NS(=O)(=O)OC[C@H]1C[C@@H](Nc2ccncc2C(=O)c2ccn(Cc3cccc(OC(F)F)c3)n2)C[C@@H]1O [Compound I-246, [(1R,2S,4R)-4-{[3-({1-[3-(difluoromethoxy)benzyl]-1H-pyrazol-3-yl}carbonyl)pyridin-4-yl]amino}-2-hydroxycyclopentyl]methyl sulfamate] | < 10 nM | 97%
16 | NS(=O)(=O)OC[C@H]1C[C@@H](Nc2ncncc2C(=O)c2ccn(Cc3cccnc3)n2)[C@H](O)[C@@H]1O [Compound I-247, {(1R,2R,3S,4R)-2,3-dihydroxy-4-[(5-{[1-(pyridin-3-ylmethyl)-1H-pyrazol-3-yl]carbonyl}pyrimidin-4-yl)amino]cyclopentyl}methyl sulfamate] | < 10 nM | 90%
17 | Cc1cccc(Cn2nc(C(=O)c3cncnc3N[C@@H]3C[C@H](COS(N)(=O)=O)[C@@H](O)C3)cc2C)c1 [Compound I-248, {(1R,2S,4R)-2-hydroxy-4-[(5-{[5-methyl-1-(3-methylbenzyl)-1H-pyrazol-3-yl]carbonyl}pyrimidin-4-yl)amino]cyclopentyl}methyl sulfamate] | < 10 nM | 99%
18 | N#Cc1ccccc1Cn1ccc(C(=O)c2cncnc2N[C@@H]2C[C@H](COS(N)(=O)=O)[C@@H](O)[C@H]2O)n1 [Compound I-249, {(1R,2R,3S,4R)-4-[(5-{[1-(2-cyanobenzyl)-1H-pyrazol-3-yl]carbonyl}pyrimidin-4-yl)amino]-2,3-dihydroxycyclopentyl}methyl sulfamate] | < 10 nM | 97%
19 | NS(=O)(=O)OC[C@H]1C[C@@H](Nc2ncncc2C(=O)c2ccn(Cc3cccc(N4CCOCC4)c3)n2)C[C@@H]1O [Compound I-251, [(1R,2S,4R)-2-hydroxy-4-{[5-({1-[3-(morpholin-4-yl)benzyl]-1H-pyrazol-3-yl}carbonyl)pyrimidin-4-yl]amino}cyclopentyl]methyl sulfamate] | 10 to 100 nM | 71%
20 | NS(=O)(=O)OC[C@H]1C[C@@H](Nc2ncncc2C(=O)c2ccn(CC3=CCCCC3)n2)C[C@@H]1O [Compound I-252, {(1R,2S,4R)-4-[(5-{[1-(cyclohex-1-en-1-ylmethyl)-1H-pyrazol-3-yl]carbonyl}pyrimidin-4-yl)amino]-2-hydroxycyclopentyl}methyl sulfamate] | < 10 nM | 97%
21 | N#Cc1ccccc1Cn1ccc(C(=O)c2cncnc2N[C@@H]2C[C@H](COS(N)(=O)=O)[C@@H](O)C2)n1 [Compound I-253, {(1R,2S,4R)-4-[(5-{[1-(2-cyanobenzyl)-1H-pyrazol-3-yl]carbonyl)pyrimidin-4-yl)amino]-2-hydroxycyclopentyl}methyl sulfamate] | 10 to 100 nM | 91%

— patent publication US9695154B2, “Heteroaryl inhibitors of sumo activating enzyme” (MILLENNIUM PHARMACEUTICALS, INC., priority 2013, dated 2017)
